In brackets after ≈: the same amount, converted by molar mass.
Test system: A/NJ/15/2007 (H1N1-H274Y)
Type: cell-based, Influenza A

Nc1ncnc2c([C@@H]3N[C@H](CO)[C@@H](O)[C@H]3O)c[nH]c12 [compound 1, (2S,3S,4R,5R)-2-(4-Amino-5H-pyrrolo[3,2-d]pyrimidin-7-yl)-5-(hydroxymethyl)pyrrolidine-3,4-diol]
EC50, antiviral activity in MDCK cells: 1.39 µg/mL (≈ 5.24 µM)

Source: patent publication US9499554B2, “Anti-influenza compositions and methods” (priority 2013, dated 2016)
